Earlier results, collected in publication PMC5745029 (Bioconjugate chemistry, 2010).

Biological target: T1, human apical sodium dependent bile acid transporter (ASBT) (Homo sapiens, UniProt Q12908)
T1 sequence (Q12908 1-348): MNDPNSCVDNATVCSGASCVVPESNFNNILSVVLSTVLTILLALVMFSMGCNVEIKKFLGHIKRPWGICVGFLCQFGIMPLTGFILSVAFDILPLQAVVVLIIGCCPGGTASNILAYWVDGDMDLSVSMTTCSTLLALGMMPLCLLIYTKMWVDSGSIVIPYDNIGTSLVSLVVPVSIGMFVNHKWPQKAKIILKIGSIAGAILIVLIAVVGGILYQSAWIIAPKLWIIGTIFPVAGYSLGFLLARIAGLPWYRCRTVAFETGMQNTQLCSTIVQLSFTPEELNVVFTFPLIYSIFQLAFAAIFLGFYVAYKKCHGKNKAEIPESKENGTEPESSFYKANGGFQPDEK
Settings: ASBT-MDCK monolayer

SMILES: C[C@H](CCC(=O)O)[C@H]1CC[C@H]2[C@@H]3[C@H](O)C[C@@H]4C[C@H](O)CC[C@]4(C)[C@H]3CC[C@]12C [CDCA, chenodeoxycholate]
- ASBT inhibition among native bile acids: most potent inhibitor among native bile acids
